Reference: PMC3306394 (PLoS ONE, 2012)
Like-named read-outs stand apart in the source and are kept apart here.

Key:
HpSK M10A [1] = molecular target: T1, HpSK M10A (Helicobacter pylori, UniProt P56073, M10A); type: biochemical; settings: apparent value
T1 construct: His6 (own knowledge: pQE30 vector gives an N-terminal MRGS-His6 tag); made in house; host or cells: E. coli
Method: (§1) SK activity was determined by coupling the release of ADP from the SK-catalyzed reaction to the oxidation of NADH using pyruvate kinase (EC 2.7.1.40) and lactate dehydrogenase (EC 1.1.1.27) as coupling enzymes. […] All assays were conducted in a 96-well microplate and analyzed with a spectrophotometer (FLUOstar OPTIMA, BMG LABTECH). The relative activity of wild-type HpSK was set to 100%.

HpSK E114A [2] = molecular target: T2, HpSK E114A (Helicobacter pylori, UniProt P56073, E114A); type: biochemical
T2 construct: His6 (own knowledge: pQE30 vector gives an N-terminal MRGS-His6 tag); made in house; host or cells: E. coli
T2 sequence (P56073 whole entry E114A): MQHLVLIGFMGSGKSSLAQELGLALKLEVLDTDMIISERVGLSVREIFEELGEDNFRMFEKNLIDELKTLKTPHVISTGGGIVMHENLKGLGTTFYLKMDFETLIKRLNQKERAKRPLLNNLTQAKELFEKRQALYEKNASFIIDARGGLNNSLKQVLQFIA
Method: as §1, with “enzymes. Shikimate-dependent oxidation of NADH was monitored by a decrease in A340 (ε = 6,200 M^−1 cm^−1).” for “enzymes.”

HpSK F48Y [3] = molecular target: T3, HpSK F48Y (Helicobacter pylori, UniProt P56073, F48Y); type: biochemical
T3 construct: His6 (own knowledge: pQE30 vector gives an N-terminal MRGS-His6 tag); made in house; host or cells: E. coli
T3 sequence (P56073 whole entry F48Y): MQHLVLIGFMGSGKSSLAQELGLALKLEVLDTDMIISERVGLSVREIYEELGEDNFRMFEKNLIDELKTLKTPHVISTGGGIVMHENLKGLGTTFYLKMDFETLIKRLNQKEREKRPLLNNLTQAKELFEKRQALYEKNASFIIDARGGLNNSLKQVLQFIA
Method: as §1, with “enzymes. Shikimate-dependent oxidation of NADH was monitored by a decrease in A340 (ε = 6,200 M^−1 cm^−1).” for “enzymes.”

[4] = molecular target: T4, wild-type HpSK (Helicobacter pylori shikimate kinase) (Helicobacter pylori, UniProt P56073); settings: wild-type enzyme, cited from earlier work
T4 construct: His6 (own knowledge: the pQE30 vector gives an N-terminal MRGS-His6 tag); made in house; host or cells: E. coli (printed for the mutants; same procedures as for wild type)
T4 sequence (P56073 whole entry): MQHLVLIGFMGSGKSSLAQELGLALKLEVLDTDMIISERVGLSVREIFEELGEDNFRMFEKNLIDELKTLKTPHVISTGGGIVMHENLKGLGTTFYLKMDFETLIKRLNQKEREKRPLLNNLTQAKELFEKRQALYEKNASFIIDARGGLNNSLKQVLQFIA

wild-type HpSK = molecular target: T5, wild-type HpSK (Helicobacter pylori, UniProt P56073); experiment: Isothermal titration calorimetry, wild-type HpSK; type: binding
T5 construct: His6 (own knowledge: the pQE30 vector gives an N-terminal MRGS-His6 tag); made in house; host or cells: E. coli (printed for the mutants; same procedures as for wild type)
T5 sequence (P56073 whole entry): as above
Method: (§2) Titration experiments were performed by ITC using an iTC200 or VP-ITC instrument (MicroCal, Piscataway, NJ, USA), and a 0.2-ml (iTC200) or 1.4-ml (VP-ITC) sample cell containing the macromolecule solution. All proteins were prepared in a buffer containing 20 mM potassium phosphate, pH 7.3. Prior to the experiment, samples were filtered and degassed under vacuum for 10 min in a Thermo Vac system (Microcal). The sample cell was filled with sample protein solution (15 µM) or the working buffer. Procedures of iTC200 titrations with a ligand (450 µM) were as follows: an initial 1-µl injection (not included in data analysis) followed by 19 injections of 2 µl each, with 2-min intervals between injections. Similar procedures for VP-ITC titrations were also performed: an initial 2-µl injection followed by 24 injections of 10 µl each, with 3-min intervals between injections. The experiments were performed with a constant stirrer speed of 1000 rpm (iTC200) or 290 rpm (VP-ITC) at 25°C. The binding isotherms were fitted to a one-site binding model to obtain the thermodynamic parameters with the initial point discarded. Data analysis was conducted using Origin 7 software.

HpSK M10A [5] = molecular target: T1, HpSK M10A; experiment: Isothermal titration calorimetry, M10A; type: binding; settings: ITC, 25°C, ND = not detectable
Method: as §2

HpSK D33A = molecular target: T6, HpSK D33A (Helicobacter pylori, UniProt P56073, D33A); experiment: Isothermal titration calorimetry, D33A; type: binding; settings: ITC, 25°C, ND = not detectable
T6 construct: His6 (own knowledge: pQE30 vector gives an N-terminal MRGS-His6 tag); made in house; host or cells: E. coli
T6 sequence (P56073 whole entry D33A): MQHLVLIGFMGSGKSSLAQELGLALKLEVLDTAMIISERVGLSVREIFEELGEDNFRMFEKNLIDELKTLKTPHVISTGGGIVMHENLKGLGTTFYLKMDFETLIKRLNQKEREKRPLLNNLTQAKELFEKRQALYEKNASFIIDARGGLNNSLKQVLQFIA
Method: as §2

HpSK D33E = molecular target: T7, HpSK D33E (Helicobacter pylori, UniProt P56073, D33E); experiment: Isothermal titration calorimetry, D33E; type: binding; settings: ITC, 25°C, ND = not detectable
T7 construct: His6 (own knowledge: pQE30 vector gives an N-terminal MRGS-His6 tag); made in house; host or cells: E. coli
T7 sequence (P56073 whole entry D33E): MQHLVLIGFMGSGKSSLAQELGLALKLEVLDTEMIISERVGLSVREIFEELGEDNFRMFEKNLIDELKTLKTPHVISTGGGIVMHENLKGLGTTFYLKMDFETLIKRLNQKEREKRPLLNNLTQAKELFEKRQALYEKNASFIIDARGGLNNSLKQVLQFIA
Method: as §2

HpSK F48A = molecular target: T8, HpSK F48A (Helicobacter pylori, UniProt P56073, F48A); experiment: Isothermal titration calorimetry, F48A; type: binding; settings: ITC, 25°C, ND = not detectable
T8 construct: His6 (own knowledge: pQE30 vector gives an N-terminal MRGS-His6 tag); made in house; host or cells: E. coli
T8 sequence (P56073 whole entry F48A): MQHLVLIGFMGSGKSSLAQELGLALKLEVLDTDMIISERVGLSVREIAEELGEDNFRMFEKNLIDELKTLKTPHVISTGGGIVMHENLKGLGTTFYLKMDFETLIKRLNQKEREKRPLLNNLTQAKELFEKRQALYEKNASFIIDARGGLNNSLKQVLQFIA
Method: as §2

HpSK F48Y [6] = molecular target: T3, HpSK F48Y; experiment: Isothermal titration calorimetry, F48Y; type: binding; settings: ITC, 25°C, ND = not detectable
Method: as §2

HpSK R57A = molecular target: T9, HpSK R57A (Helicobacter pylori, UniProt P56073, R57A); experiment: Isothermal titration calorimetry, R57A; type: binding; settings: ITC, 25°C, ND = not detectable
T9 construct: His6 (own knowledge: pQE30 vector gives an N-terminal MRGS-His6 tag); made in house; host or cells: E. coli
T9 sequence (P56073 whole entry R57A): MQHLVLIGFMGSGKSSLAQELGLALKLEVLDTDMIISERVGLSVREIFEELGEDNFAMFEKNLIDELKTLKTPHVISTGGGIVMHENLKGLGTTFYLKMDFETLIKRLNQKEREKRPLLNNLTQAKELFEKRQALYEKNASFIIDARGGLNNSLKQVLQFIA
Method: as §2

HpSK R57K = molecular target: T10, HpSK R57K (Helicobacter pylori, UniProt P56073, R57K); experiment: Isothermal titration calorimetry, R57K; type: binding; settings: ITC, 25°C, ND = not detectable
T10 construct: His6 (own knowledge: pQE30 vector gives an N-terminal MRGS-His6 tag); made in house; host or cells: E. coli
T10 sequence (P56073 whole entry R57K): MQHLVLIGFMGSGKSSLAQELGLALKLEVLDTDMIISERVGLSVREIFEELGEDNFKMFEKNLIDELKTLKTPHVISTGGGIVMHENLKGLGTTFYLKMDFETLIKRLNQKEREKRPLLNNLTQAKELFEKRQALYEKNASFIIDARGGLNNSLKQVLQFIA
Method: as §2

HpSK E114A [7] = molecular target: T2, HpSK E114A; experiment: Isothermal titration calorimetry, E114A; type: binding; settings: ITC, 25°C, ND = not detectable
Method: as §2

HpSK R116A = molecular target: T11, HpSK R116A (Helicobacter pylori, UniProt P56073, R116A); experiment: Isothermal titration calorimetry, R116A; type: binding; settings: ITC, 25°C, ND = not detectable
T11 construct: His6 (own knowledge: pQE30 vector gives an N-terminal MRGS-His6 tag); made in house; host or cells: E. coli
T11 sequence (P56073 whole entry R116A): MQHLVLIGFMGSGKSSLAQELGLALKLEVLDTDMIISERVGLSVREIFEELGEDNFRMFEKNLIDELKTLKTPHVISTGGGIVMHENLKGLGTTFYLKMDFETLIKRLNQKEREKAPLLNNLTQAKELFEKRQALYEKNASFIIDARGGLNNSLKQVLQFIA
Method: as §2

HpSK R116K = molecular target: T12, HpSK R116K (Helicobacter pylori, UniProt P56073, R116K); experiment: Isothermal titration calorimetry, R116K; type: binding; settings: ITC, 25°C, ND = not detectable
T12 construct: His6 (own knowledge: pQE30 vector gives an N-terminal MRGS-His6 tag); made in house; host or cells: E. coli
T12 sequence (P56073 whole entry R116K): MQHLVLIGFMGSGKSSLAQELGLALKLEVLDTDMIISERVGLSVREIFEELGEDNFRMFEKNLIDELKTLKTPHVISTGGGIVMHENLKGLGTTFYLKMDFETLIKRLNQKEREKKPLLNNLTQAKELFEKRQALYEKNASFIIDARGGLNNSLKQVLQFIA
Method: as §2

HpSK R132A = molecular target: T13, HpSK R132A (Helicobacter pylori, UniProt P56073, R132A); experiment: Isothermal titration calorimetry, R132A; type: binding; settings: ITC, 25°C, ND = not detectable
T13 construct: His6 (own knowledge: pQE30 vector gives an N-terminal MRGS-His6 tag); made in house; host or cells: E. coli
T13 sequence (P56073 whole entry R132A): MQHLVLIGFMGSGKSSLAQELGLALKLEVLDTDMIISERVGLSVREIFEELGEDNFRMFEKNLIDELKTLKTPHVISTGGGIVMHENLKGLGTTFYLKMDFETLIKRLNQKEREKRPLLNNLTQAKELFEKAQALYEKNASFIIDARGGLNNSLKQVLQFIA
Method: as §2

HpSK R132K = molecular target: T14, HpSK R132K (Helicobacter pylori, UniProt P56073, R132K); experiment: Isothermal titration calorimetry, R132K; type: binding; settings: ITC, 25°C, ND = not detectable
T14 construct: His6 (own knowledge: pQE30 vector gives an N-terminal MRGS-His6 tag); made in house; host or cells: E. coli
T14 sequence (P56073 whole entry R132K): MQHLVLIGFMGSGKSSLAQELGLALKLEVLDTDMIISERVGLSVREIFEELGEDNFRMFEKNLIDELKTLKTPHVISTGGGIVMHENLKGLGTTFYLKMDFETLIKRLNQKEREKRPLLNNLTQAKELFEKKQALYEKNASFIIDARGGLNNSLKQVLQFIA
Method: as §2

[8] = apparent value, read-out: Km (MgATP)
[9] = read-out: Km (shikimate), apparent value

T1 sequence (P56073 whole entry M10A): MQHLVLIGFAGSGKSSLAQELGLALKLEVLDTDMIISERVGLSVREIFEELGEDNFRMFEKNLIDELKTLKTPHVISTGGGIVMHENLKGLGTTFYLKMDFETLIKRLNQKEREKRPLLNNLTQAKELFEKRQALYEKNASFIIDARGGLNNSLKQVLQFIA

Question: With `Nc1ncnc2c1ncn2[C@@H]1O[C@H](COP(=O)(O)OP(=O)(O)OP(=O)(O)O)[C@@H](O)[C@H]1O` [ATP] as the molecule, how does the “V max(MgATP)” value (HpSK M10A [1]) read?
Answer: 26 ± 1 µmol/min/mg

Question: What about the Km (HpSK M10A [1]; read-out: Km (MgATP)) of the same molecule?
Answer: 293 µM

Question: What about the “V max(MgATP)” value (HpSK E114A [2]; apparent value) of the same molecule?
Answer: 26 ± 2 µmol/min/mg

Question: What about the Km (HpSK E114A [2]; [8]) of the same molecule?
Answer: 143 µM

Question: And the “V max(MgATP)” value (HpSK F48Y [3]; apparent value)?
Answer: 17 ± 1 µmol/min/mg

Question: And the Km (HpSK F48Y [3]; [8])?
Answer: 231 µM

Question: And the “V max(MgATP)” value [4]?
Answer: 26 ± 1 µmol/min/mg

Question: And the Km ([4]; read-out: Km (MgATP))?
Answer: 101 µM

Question: What does the source list for `O=C(O)C1=C[C@@H](O)[C@@H](O)[C@H](O)C1` [shikimate, shikimic acid]?
Answer: V max(shikimate) (HpSK M10A [1]): 16 ± 1 µmol/min/mg; V max(shikimate) (HpSK E114A [2]; apparent value): 23 ± 1 µmol/min/mg; Km (HpSK E114A [2]; [9]): 39 µM; V max(shikimate) (HpSK F48Y [3]; apparent value): 13 ± 2 µmol/min/mg; Km (HpSK F48Y [3]; [9]): 291 µM; Kd (wild-type HpSK): 320 ± 70 nM; Kd (HpSK M10A [5]): 34000 ± 7000 nM; Kd (HpSK D33A): no heat release; Kd (HpSK D33E): no heat release; Kd (HpSK F48A): lost binding activity; Kd (HpSK F48Y [6]): 5200 ± 400 nM; Kd (HpSK R57A): no heat release; Kd (HpSK R57K): no heat release; Kd (HpSK E114A [7]): 330 ± 30 nM; Kd (HpSK R116A): no heat release; Kd (HpSK R116K): no heat release; Kd (HpSK R132A): no heat release; Kd (HpSK R132K): no heat release; Km ([4]; read-out: Km (shikimate)): 60 µM; V max(shikimate) [4]: 22 ± 1 µmol/min/mg
